In ChEMBL document CHEMBL1201862, “PubChem BioAssay data set” (2004):
Several values for one entry are separate records, joined by “and”; a condition that tells them apart may be missing. Identical values can stand only once.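 Tested at 5 concentrations; 48 h exposure; 96-well plates; endpoints linearly interpolated, else capped at highest concentration. At the GI50, growth is halved.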 Activity calls are given as the source filed them. Cut-off read from the data, not from the text of the source: active = GI50 up to about 1.1 µM and inactive = higher.

Columns and labels:
Test in all cases: NCI-60 cell line screen, 48 h
[1] = tested on: SK-OV-3
[2] = tested on: RPMI-8226
[3] = tested on: UO-31
[4] = tested on: COLO 205
[5] = tested on: SK-MEL-28
[6] = tested on: OVCAR-5
[7] = tested on: Hs-578T
[8] = tested on: SNB-75
[9] = tested on: DU-145
[10] = tested on: ACHN
[11] = tested on: NCI-H522
[12] = tested on: U-251
[13] = tested on: NCI-H226
[14] = tested on: A549
[15] = tested on: M14
[16] = tested on: SR
[17] = tested on: HCC 2998
[18] = tested on: HOP-92
[19] = tested on: SW-620

Measured: GI50

N=C/N=C/C(=S)O[C@@H]1C(=O)N2CCC[C@@]23CCCC[C@@H]13
inactive: [1] > 12.5 µM | [2] > 12.5 µM | [3] > 12.5 µM | [4] > 12.5 µM | [5] > 12.5 µM | [6] > 12.5 µM | [7] > 12.5 µM | [8] > 12.5 µM | [9] > 12.5 µM | [10] > 12.5 µM | [11] > 12.5 µM | [12] > 12.5 µM | [13] > 12.5 µM | [14] > 12.5 µM | [15] > 12.5 µM | [16] > 12.5 µM | [17] > 12.5 µM

COC1OC(C(=O)CP(=O)(OC)OC)C(OCc2ccccc2)C(OCc2ccccc2)C1OCc1ccccc1 (configuration not stated)
inactive: [1] 18.1 µM and 17.9 µM | [3] 11.2 µM and 17.1 µM | [4] 18.5 µM and 18.2 µM | [5] 16.9 µM and 21 µM | [6] 15.4 µM and 17.4 µM | [7] 25.6 µM and 22.1 µM | [8] 14.6 µM and 16 µM | [9] 17.9 µM and 16.5 µM | [10] 16.4 µM and 15.9 µM | [11] 14.5 µM and 16 µM | [12] 16.7 µM and 15.6 µM | [13] 19.2 µM and 18.8 µM | [14] 15.3 µM and 15.5 µM | [18] 17.9 µM and 19.1 µM | [15] 15.3 µM and 16.6 µM | [16] 16.4 µM and 25.4 µM | [19] 20.7 µM and 34.3 µM | [17] 16.2 µM and 17.3 µM

CN(C)c1ccc(C=C2C(=O)N(c3ccccc3)N(c3ccccc3)C2=O)cc1
inactive: [1] > 100 µM | [2] 69 µM | [3] > 100 µM | [4] > 100 µM | [5] > 100 µM | [6] > 100 µM | [7] 60.8 µM | [8] 53.7 µM | [9] > 100 µM | [10] 81.8 µM | [11] > 100 µM | [12] 37 µM | [13] > 100 µM | [14] 78.9 µM | [18] 15.6 µM | [15] > 100 µM | [16] > 100 µM | [19] > 100 µM

CCCC[C@H]1CCN2C[C@@H](O)[C@@H](O)[C@H]2[C@@H]1O
inactive: [1] > 100 µM | [2] > 100 µM | [3] > 100 µM | [4] > 100 µM | [5] > 100 µM | [6] > 100 µM | [7] > 100 µM | [8] > 100 µM | [9] > 100 µM | [10] > 100 µM | [11] > 100 µM | [12] > 100 µM | [13] > 100 µM | [14] > 100 µM | [18] > 100 µM | [15] > 100 µM | [19] > 100 µM | [17] > 100 µM

CC(C)(C)OC(=O)N1CCc2[nH][nH]c(=O)c2C1
inactive: [1] > 100 µM | [2] > 100 µM | [3] > 100 µM | [4] > 100 µM | [5] > 100 µM | [7] > 100 µM | [9] > 100 µM | [11] > 100 µM | [12] > 100 µM | [13] > 100 µM | [14] > 100 µM | [18] > 100 µM | [15] > 100 µM | [16] > 100 µM | [19] > 100 µM

O=C1CC(NC(=O)C(F)(F)F)c2c1csc2Br (configuration not stated)
inactive: [1] > 100 µM | [2] 32.6 µM | [3] 45.5 µM | [4] > 100 µM | [5] > 100 µM | [6] 2.24 µM | [7] > 100 µM | [9] 2.11 µM | [10] > 100 µM | [11] 54.6 µM | [12] > 100 µM | [13] > 100 µM | [14] > 100 µM | [18] 35 µM | [15] 88.3 µM | [16] 36.9 µM | [19] 31.8 µM | [17] > 100 µM

COC(=O)C(Cc1ccc2c(c1)CCC2)Cc1ccc2c(c1)CCC2
inactive: [1] > 100 µM | [2] 26.1 µM | [3] 53.3 µM | [4] 92.7 µM | [5] 94.4 µM | [6] > 100 µM | [7] > 100 µM | [8] 71.3 µM | [9] > 100 µM | [10] 68.7 µM | [11] 32.9 µM | [12] 51.9 µM | [13] 42.5 µM | [14] 41.3 µM | [18] 31.3 µM | [15] 80 µM | [16] 57 µM | [19] > 100 µM

CCOC(=O)c1nc2c(Cl)c3ncccc3cc2[nH]c1=O
inactive: [1] > 100 µM | [3] 55.5 µM | [4] > 100 µM | [5] 59.3 µM | [6] 61.7 µM | [7] 31.7 µM | [8] 17.2 µM | [9] > 100 µM | [10] 95.7 µM | [11] 34.4 µM | [12] 23 µM | [13] 6.71 µM | [14] 28.4 µM | [18] 40.6 µM | [15] 27.9 µM | [16] 8.73 µM | [19] 43.3 µM | [17] 19.6 µM

C[C@@H](c1ccccc1)N1CN(C(=O)OCc2ccccc2)C(CO)C1=O (some centres not stated)
inactive: [1] > 100 µM | [2] 93.1 µM | [4] > 100 µM | [5] > 100 µM | [6] > 100 µM | [7] > 100 µM | [8] > 100 µM | [9] > 100 µM | [10] > 100 µM | [11] > 100 µM | [12] > 100 µM | [13] > 100 µM | [14] > 100 µM | [15] > 100 µM | [16] > 100 µM | [19] > 100 µM | [17] > 100 µM

Cc1ccc(C2=C(Cl)C(=O)C(c3ccc(C)cc3)=C(Cl)C2=O)cc1
inactive: [1] > 100 µM | [2] > 100 µM | [3] > 100 µM | [4] > 100 µM | [5] > 100 µM | [6] > 100 µM | [7] > 100 µM | [8] > 100 µM | [9] > 100 µM | [10] > 100 µM | [11] > 100 µM | [12] > 100 µM | [13] > 100 µM | [14] > 100 µM | [18] > 100 µM | [15] > 100 µM | [16] > 100 µM | [19] > 100 µM

O=C1/C(=C/c2cccnc2)SC(=S)N1Cc1ccco1
inactive: [1] 19.1 µM | [2] 2.2 µM | [3] 2.84 µM | [4] 6.15 µM | [5] 31 µM | [6] 36.1 µM | [7] 8.39 µM | [9] 2.19 µM | [10] 10.7 µM | [11] 1.43 µM | [12] 4.37 µM | [13] 24.4 µM | [14] 31 µM | [18] 5.32 µM | [15] 5.6 µM | [16] 1.44 µM | [19] 3.84 µM
